Results from ChEMBL document CHEMBL1201862, “PubChem BioAssay data set” (2004).
Active and inactive are the calls of the source.

Key:
[1] = target: T1, Mitochondrial peptide methionine sulfoxide reductase (Bos taurus, UniProt P54149); assay: Absorbance-based biochemical high throughput dose response assay for activators of Methionine sulfoxide reductase A (MsrA).; type: functional
[2] = target: T2, Sentrin-specific protease 8 (Homo sapiens, UniProt Q96LD8); type: functional
T2 sequence (Q96LD8 whole entry): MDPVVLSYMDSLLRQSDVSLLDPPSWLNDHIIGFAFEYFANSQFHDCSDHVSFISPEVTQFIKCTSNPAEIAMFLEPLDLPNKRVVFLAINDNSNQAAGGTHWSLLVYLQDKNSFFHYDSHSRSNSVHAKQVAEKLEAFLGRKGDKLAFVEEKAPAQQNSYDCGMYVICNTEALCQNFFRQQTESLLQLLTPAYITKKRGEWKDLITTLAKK

[3] = target: T2, Sentrin-specific protease 8; type: functional; remark: listed apart in the source
[4] = target: T1, Mitochondrial peptide methionine sulfoxide reductase; type: functional
[5] = target: Histone-lysine N-methyltransferase NSD2 (Homo sapiens, UniProt O96028); type: biochemical
[6] = cAMP pathway inhibition in counterscreen cell line – TR-FRET cAMP detection, counter-screen for MC4R biased antagonist project, dose response (AID 602305); type: functional, cell-based;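 note: U2OS cells stimulated with forskolin near its EC80 as the cAMP inducer; potency is for inhibition of forskolin-stimulated cAMP signaling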
Melanocortin receptor 4 = Melanocortin receptor 4 (Homo sapiens, UniProt P32245); assay: inhibitors of MC4R cAMP signaling – cell-based, TR-FRET, biased antagonists, dose response (AID 602298); type: functional;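 note: antagonist potency against agonist-stimulated cAMP production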
[7] = bead-based luminescence quenchers, dual-tagged ARNT – biochemical, AlphaScreen, cherry-pick, artefact control for ARNT-TACC3 interaction inhibitor project, dose response (AID 651705); type: functional;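 note: AlphaScreen bead proximity signal that flags compounds interfering with the detection technology; potency reflects signal decrease which marks the compound as an assay artifact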
H9c2 = assay: cells; type: functional, cell-based; details: Rattus norvegicus, H9c2, Myocardium;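 note: confirmatory concentration-response retest of ultra-high-throughput screening hits for modulation of myocardial damage; cell death induced by hydrogen peroxide oxidative stress; compound pretreatment for 60 min then peroxide exposure for 2 h; potency is for protecting the cells against peroxide damage rather than for killing them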
Beta-lactamase [8] = target: T3, Beta-lactamase (Pseudomonas aeruginosa, UniProt Q79MP6); assay: […] counterscreen for selective VIM-2 inhibitors: dose response biochemical high throughput screening assay to identify inhibitors of IMP-1 metallo-beta-lactamase.
T3 sequence (Q79MP6 whole entry): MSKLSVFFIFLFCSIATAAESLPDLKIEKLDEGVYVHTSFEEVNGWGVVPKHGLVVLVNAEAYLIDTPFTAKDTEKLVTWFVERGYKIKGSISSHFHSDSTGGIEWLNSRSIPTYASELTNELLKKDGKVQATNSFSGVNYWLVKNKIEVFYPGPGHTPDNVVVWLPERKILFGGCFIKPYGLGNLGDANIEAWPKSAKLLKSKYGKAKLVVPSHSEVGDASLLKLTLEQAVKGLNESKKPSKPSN

[9] = target: T4, Probable nicotinate-nucleotide adenylyltransferase (Staphylococcus aureus (strain N315), UniProt P65502); type: functional, Staphylococcus aureus subsp. aureus N315;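 for IC50 Mean: confirmatory dose-response retesting of NadD inhibitor hits first found in an ultra-high-throughput screen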
T4 sequence (P65502 whole entry): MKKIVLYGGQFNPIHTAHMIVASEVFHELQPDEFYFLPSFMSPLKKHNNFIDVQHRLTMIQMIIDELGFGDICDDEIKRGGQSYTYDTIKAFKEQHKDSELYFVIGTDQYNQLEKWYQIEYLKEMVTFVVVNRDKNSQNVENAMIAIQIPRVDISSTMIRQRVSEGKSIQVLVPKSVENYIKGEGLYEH

[10] = target: T4, Probable nicotinate-nucleotide adenylyltransferase; type: functional, Staphylococcus aureus subsp. aureus N315; details: read-out: IC50_Mean
Beta Lactamase [11] = target: T5, Beta Lactamase (Pseudomonas aeruginosa, UniProt Q932Y6); assay: VIM-2 CCF2 hydrolysis inhibition, assay artifact filter – biochemical, FRET readout, CCF2 substrate, artefact control for selective VIM-2 inhibitor project, dose response (AID 1926)
T5 sequence (Q932Y6 whole entry): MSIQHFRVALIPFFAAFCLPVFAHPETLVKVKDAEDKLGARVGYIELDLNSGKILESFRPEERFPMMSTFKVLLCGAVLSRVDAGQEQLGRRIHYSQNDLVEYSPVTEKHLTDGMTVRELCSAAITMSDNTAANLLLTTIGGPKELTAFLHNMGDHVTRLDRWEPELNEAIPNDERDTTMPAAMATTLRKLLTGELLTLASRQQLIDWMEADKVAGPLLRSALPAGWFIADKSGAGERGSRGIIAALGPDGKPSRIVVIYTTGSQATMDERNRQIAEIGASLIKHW

Beta-lactamase [12] = target: T3, Beta-lactamase; assay: inhibition of IMP-1 beta-lactamase activity – biochemical, epi-absorbance, selectivity assay for VIM-2 inhibitor project, dose response (AID 1920)
Beta-lactamase [13] = target: Beta-lactamase (Salmonella choleraesuis (strain SC-B67), UniProt Q5J463); assay: Epi-absorbance-based counterscreen for selective VIM-2 inhibitors: dose response biochemical high throughput screening assay to identify inhibitors of TEM-1 serine-beta-lactamase.
Leucine aminopeptidase = target: T6, Leucine aminopeptidase (Plasmodium falciparum 3D7, UniProt Q8IL11); assay: P. falciparum M17LAP inhibitors, primary screen, biochemical, fluorogenic H-Leu-NHMec substrate, 1536-well (AID 1619); type: functional
T6 sequence (Q8IL11 whole entry): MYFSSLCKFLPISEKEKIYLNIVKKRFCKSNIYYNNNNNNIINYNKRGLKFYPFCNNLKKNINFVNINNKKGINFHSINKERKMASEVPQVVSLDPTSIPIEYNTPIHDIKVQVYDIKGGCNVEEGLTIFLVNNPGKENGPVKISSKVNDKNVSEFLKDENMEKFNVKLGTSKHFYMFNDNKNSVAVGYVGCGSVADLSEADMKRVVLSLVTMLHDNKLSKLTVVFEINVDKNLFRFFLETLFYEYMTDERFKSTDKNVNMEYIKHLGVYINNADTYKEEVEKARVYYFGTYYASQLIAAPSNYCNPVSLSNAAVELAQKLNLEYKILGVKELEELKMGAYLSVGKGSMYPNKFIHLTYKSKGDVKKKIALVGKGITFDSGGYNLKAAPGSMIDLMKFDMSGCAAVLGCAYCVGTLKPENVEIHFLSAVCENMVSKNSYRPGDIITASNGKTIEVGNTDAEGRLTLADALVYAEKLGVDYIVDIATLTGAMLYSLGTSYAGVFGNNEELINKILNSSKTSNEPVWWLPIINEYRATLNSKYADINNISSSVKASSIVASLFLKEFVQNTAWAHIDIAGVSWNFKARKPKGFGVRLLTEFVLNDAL

Beta Lactamase [14] = target: T5, Beta Lactamase; assay: concentration-dependent VIM-2 enzyme inhibition – biochemical, epi-absorbance readout, selective inhibitors, dose response (AID 1919)
Interleukin-8 = Interleukin-8 (Homo sapiens, UniProt P10145); assay: Dose Response confirmation of uHTS small molecule hits for cystic fibrosis induced NFkb Inhibitors in a PAF-induced IL8 counterscreen.; type: functional; details: read-out: IC50_Mean
Chain of Interleukin-8 (P10145 whole entry, the tested form may be a part): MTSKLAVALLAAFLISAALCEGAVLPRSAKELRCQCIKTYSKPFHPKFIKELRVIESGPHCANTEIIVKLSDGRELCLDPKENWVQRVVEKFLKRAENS

[15] = target: Arf-GAP with SH3 domain, ANK repeat and PH domain-containing protein 1 (Homo sapiens, UniProt Q9ULH1); type: functional;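 note: biochemical fluorescence polarization dose–response screen measuring inhibition of ASAP1; ASAP1 GAP domain stimulating GTP hydrolysis by truncated human ARF1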
[16] = target: Nuclear receptor subfamily 5 group A member 2 (Homo sapiens, UniProt O00482); type: functional, cell-based;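 note: HEK293T cells transfected with LRH-1 and a StAR promoter luciferase reporter; potency for inhibitors that lower LRH-1 driven reporter light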
Steroidogenic factor 1 = Steroidogenic factor 1 (Homo sapiens, UniProt Q13285); assay: Counterscreen for inverse agonists of the liver receptor homolog-1 (LRH-1; NR5A2): Luminescence-based cell-based high throughput dose response assay to identify inverse agonists of the Steroidogenic Factor 1 Nuclear Receptor (SF1; NR5A1).; type: functional
Chain of Steroidogenic factor 1 (Q13285 whole entry): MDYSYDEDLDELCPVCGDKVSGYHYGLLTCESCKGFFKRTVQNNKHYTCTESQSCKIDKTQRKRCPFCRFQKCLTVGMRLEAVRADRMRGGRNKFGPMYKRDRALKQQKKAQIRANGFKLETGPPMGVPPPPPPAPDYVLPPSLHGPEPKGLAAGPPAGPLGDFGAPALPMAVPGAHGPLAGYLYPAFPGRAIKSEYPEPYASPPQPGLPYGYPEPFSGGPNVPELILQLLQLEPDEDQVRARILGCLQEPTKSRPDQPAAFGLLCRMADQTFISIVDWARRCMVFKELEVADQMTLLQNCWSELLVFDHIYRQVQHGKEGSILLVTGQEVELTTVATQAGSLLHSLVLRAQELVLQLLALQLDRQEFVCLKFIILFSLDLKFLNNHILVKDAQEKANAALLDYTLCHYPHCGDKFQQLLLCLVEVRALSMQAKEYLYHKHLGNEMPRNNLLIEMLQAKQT

[17] = nonselective StAR promoter luciferase inhibitors – cell-based, luminescence, luciferase reporter, counter-screen for LRH-1 inverse agonist project, dose response (AID 651969); type: functional
[18] = target: Cyclin-dependent kinase 7 (Homo sapiens, UniProt P50613); type: functional;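 note: value comes from a kinome-wide kinase profiling panel in which CDK7 is one member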
Chain of Cyclin-dependent kinase 7 (P50613 whole entry): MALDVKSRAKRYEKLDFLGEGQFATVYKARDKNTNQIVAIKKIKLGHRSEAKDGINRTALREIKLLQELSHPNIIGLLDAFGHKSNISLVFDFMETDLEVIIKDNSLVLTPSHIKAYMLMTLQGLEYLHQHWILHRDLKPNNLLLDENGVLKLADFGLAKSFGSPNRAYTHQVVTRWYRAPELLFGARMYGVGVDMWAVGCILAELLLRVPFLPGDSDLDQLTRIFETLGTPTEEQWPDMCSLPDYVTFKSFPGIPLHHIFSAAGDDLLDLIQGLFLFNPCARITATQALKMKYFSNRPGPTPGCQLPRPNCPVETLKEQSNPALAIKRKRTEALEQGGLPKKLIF

[19] = target: Cyclin-dependent kinase 9 (Homo sapiens, UniProt P50750); type: functional;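 note: value from the CDK9 entry of a kinome-spanning kinase panel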
Chain of Cyclin-dependent kinase 9 (P50750 whole entry): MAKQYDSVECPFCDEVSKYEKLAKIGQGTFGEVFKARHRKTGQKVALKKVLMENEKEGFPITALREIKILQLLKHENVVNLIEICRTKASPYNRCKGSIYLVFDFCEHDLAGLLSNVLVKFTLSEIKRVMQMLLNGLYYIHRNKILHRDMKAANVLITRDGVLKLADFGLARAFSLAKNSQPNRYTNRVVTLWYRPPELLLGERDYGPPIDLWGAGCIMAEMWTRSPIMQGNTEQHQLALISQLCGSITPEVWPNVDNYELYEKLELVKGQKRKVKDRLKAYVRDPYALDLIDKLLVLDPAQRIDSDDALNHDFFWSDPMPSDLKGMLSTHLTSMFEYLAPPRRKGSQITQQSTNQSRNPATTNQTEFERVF

[20] = target: Cyclin-dependent kinase 8 (Homo sapiens, UniProt P49336); assay: Navigating the Kinome. Panel member name: CDK8; type: functional
Chain of Cyclin-dependent kinase 8 (P49336 whole entry): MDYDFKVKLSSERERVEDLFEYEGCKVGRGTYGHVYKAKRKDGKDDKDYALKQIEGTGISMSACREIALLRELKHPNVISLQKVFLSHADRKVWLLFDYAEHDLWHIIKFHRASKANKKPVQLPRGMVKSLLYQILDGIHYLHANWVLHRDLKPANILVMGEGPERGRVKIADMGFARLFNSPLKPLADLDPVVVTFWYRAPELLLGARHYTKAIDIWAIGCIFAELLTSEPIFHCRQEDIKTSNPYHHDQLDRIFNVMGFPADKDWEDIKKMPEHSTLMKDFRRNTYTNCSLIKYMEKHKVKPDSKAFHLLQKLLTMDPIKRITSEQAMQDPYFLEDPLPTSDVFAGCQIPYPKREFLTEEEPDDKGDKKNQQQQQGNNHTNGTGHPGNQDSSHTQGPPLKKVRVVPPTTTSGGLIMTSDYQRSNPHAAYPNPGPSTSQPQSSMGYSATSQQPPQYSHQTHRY

[21] = target: Long-chain-fatty-acid--AMP ligase FadD28 (Mycobacterium tuberculosis, UniProt P9WQ59); assay: Fluorescence polarization aasay to screen for inhibitors that compete for the binding of FadD28 to a bisubstrate Measured in Biochemical System Using Plate Reader - 2147-01_Inhibitor_Dose_CherryPick_Activity.; type: functional, Mycobacterium tuberculosis H37Rv
[22] = target: T7, ATP-dependent translocase ABCB1 (Homo sapiens, UniProt P08183); assay: inhibition of BCRP-mediated JC-1 efflux – Ig-MXP3 cells, flow cytometry, set 2, dose response (AID 504566); type: functional; details: read-out: EC50_MICROM_;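 note: flow cytometry median green fluorescence of retained JC-1 dye; potency of efflux pump inhibition measured as rising substrate retention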
T7 sequence (P08183 whole entry): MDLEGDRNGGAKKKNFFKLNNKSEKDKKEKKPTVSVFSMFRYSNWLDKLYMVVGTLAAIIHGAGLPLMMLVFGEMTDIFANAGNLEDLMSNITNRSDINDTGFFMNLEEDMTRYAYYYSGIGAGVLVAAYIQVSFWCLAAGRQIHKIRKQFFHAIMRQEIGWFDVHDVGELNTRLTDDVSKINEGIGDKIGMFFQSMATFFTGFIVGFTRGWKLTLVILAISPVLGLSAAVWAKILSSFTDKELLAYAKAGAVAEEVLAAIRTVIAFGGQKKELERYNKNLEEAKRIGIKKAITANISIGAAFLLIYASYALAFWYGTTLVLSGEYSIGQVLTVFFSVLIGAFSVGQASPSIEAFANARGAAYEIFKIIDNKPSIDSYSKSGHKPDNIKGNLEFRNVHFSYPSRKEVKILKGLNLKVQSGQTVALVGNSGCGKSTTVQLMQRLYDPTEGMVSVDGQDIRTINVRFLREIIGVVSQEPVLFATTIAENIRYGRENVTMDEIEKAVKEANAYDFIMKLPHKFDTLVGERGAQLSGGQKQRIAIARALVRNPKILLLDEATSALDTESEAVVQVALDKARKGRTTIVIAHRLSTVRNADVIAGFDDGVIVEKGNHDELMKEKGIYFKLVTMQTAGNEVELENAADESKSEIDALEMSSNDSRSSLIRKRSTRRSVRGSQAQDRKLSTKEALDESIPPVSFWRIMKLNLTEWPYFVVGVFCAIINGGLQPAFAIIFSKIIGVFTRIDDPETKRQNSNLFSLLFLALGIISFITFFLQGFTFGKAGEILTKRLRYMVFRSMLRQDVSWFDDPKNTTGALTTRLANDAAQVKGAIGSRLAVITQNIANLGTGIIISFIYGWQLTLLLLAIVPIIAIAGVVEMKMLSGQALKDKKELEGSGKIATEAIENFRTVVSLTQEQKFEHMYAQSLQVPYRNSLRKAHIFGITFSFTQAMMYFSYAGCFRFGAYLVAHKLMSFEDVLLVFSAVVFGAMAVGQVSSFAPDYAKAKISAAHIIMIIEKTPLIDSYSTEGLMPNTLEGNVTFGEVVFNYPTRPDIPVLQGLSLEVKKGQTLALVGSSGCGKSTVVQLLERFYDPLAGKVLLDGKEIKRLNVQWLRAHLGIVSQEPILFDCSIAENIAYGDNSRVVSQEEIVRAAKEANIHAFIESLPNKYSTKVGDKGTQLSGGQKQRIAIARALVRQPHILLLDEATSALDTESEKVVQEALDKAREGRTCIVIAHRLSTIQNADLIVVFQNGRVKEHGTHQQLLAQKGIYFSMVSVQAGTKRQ

[23] = target: T7, ATP-dependent translocase ABCB1; assay: P-gp JC-1 efflux blockade concentration-response – Jurkat-DNR cells, flow cytometry, set 2, dose response (AID 504569); type: functional; details: read-out: EC50_MICROM_;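 note: potency of pump inhibitors that raise cellular JC-1 green fluorescence up to the nicardipine level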
[24] = target: ADP-ribosylation factor GTPase-activating protein 1 (Rattus norvegicus, UniProt Q62848); assay: Fluorescence polarization-based biochemical high throughput dose response screening assay to identify inhibitors of ADP-ribosylation factor GTPase activating protein 1 (ARFGAP1).; type: functional
Chain of ADP-ribosylation factor GTPase-activating protein 1 (Q62848 whole entry): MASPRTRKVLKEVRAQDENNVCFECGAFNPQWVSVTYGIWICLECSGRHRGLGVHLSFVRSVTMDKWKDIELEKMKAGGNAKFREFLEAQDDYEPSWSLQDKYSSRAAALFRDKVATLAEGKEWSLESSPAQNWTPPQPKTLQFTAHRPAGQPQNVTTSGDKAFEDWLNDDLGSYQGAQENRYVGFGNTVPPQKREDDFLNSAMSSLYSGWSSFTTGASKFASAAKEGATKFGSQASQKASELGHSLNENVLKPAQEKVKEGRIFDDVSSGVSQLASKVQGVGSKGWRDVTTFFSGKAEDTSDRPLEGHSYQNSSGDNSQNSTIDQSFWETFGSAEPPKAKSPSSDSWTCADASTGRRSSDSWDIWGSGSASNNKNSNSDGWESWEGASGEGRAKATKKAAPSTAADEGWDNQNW

[25] = target: T8, Small ubiquitin-related modifier 1 (Homo sapiens, UniProt P63165); assay: SUMO1 protein-protein binding blockers, potency – biochemical, FRET, dose response (AID 624383); type: functional; details: read-out: IC50_Mean
T8 sequence (P63165 whole entry): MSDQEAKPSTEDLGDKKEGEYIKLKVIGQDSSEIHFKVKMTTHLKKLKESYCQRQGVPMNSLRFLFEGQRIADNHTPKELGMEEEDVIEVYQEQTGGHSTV

[26] = target: T8, Small ubiquitin-related modifier 1; assay: SUMO1 protein interaction blockers, potency – biochemical, fluorescence polarization, uHTS hits, dose response (AID 624382); type: functional; details: read-out: IC50_Mean
[27] = target: T9, Carboxy-terminal domain RNA polymerase II polypeptide A small phosphatase 1 (Homo sapiens, UniProt Q9GZU7); assay: CTDSP1 inhibitors, concentration-response, biochemical, absorbance readout, ultra-high-throughput screen actives (AID 540297); type: functional
T9 sequence (Q9GZU7 whole entry): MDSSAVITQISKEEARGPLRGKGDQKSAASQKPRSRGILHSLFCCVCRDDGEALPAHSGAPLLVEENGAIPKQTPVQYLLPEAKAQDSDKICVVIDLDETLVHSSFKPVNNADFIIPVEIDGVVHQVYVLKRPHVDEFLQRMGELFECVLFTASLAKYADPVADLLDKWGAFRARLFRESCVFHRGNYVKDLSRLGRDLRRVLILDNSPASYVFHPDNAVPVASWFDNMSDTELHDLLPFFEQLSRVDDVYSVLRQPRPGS

[28] = target: Mitogen-activated protein kinase 13 (Homo sapiens, UniProt O15264); type: functional
Chain of Mitogen-activated protein kinase 13 (O15264 whole entry): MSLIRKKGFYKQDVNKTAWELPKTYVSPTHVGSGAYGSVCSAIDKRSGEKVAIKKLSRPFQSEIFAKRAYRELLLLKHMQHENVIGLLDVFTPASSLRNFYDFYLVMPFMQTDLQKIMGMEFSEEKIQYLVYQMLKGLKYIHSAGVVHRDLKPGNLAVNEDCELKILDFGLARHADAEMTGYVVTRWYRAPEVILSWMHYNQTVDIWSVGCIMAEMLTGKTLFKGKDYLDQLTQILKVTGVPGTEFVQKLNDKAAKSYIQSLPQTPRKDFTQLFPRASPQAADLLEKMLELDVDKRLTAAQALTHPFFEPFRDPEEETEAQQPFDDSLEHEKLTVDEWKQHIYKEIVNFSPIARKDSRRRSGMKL

[29] = Luminescence Cell-Based Dose Response HTS to Identify Activators of Luciferase Translation or Activity in H4 […] Cells. [Related pubchem assays: 1829 (Project Summary), 1814 (Primary HTS)]; type: functional
[30] = target: ATP-dependent molecular chaperone HSP82 (Candida albicans (strain WO-1) (Yeast), UniProt C4YTQ8); assay: steroid-induced GRE reporter decrease in yeast – S. cerevisiae, luminescence, Hsp90 inhibitor project, dose response (AID 2400); type: functional, cell-based;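 note: beta-galactosidase luminescence from glucocorticoid response element reporter as proxy for Hsp90 function; inhibitor potency where signal loss means Hsp90 inhibition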
[31] = Luminescence Cell-Based Dose Response to Identify Activators of Luciferase Translation or Activity in H4-C Neuroglioblastoma Cells. [Related pubchem assays: 1829 (Project Summary), 1814 (Primary HTS)]; type: functional
[32] = fluconazole-exposed Candida albicans growth modulators – fluorescence, retest, confirmation (AID 2467); type: functional, cell-based
[33] = NIH-3T3 fibroblast cytotoxicity, dose response, cytotoxicity control, cell-based, fluorescence, Alamar Blue, secondary assay (AID 2327); type: functional;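 note: NIH-3T3 mouse fibroblasts cultured with fluconazole at 8 µg/mL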
[34] = Luminescence Cell-Based Dose Response to Identify Activators of 5'UTR Stem-Loop Driven Prion Protein mRNA Translation in H4-C Neuroglioblastoma Cells. [Related pubchem assays: 1829 (Project Summary), 1814 (Primary HTS)]; type: functional
[35] = target: Serine/threonine-protein phosphatase (Candida dubliniensis (strain CD36 / CBS 7987 / NCPF 3949 / NRRLY-17841) (Yeast), UniProt B9W6M3); assay: blockers of CaCl2-induced CDRE-lacZ signaling – S. cerevisiae, luminescence, secondary, dose response (AID 2388); type: functional, cell-based;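 note: yeast reporter cells carrying a calcineurin-responsive lacZ construct stimulated with calcium chloride; luminescent beta-galactosidase reporter signal in whole cells rather than isolated phosphatase activity; potency for inhibition where a drop in reporter signal means calcineurin blockade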
[36] = Luminescence Cell-Based Dose Confirmation HTS to Identify Activators of 5'UTR Stem-Loop Driven Alpha-Synuclein mRNA Translation in H4 Neuroglioblastoma Cells. [Related pubchem assays: 1829 (Project Summary), 1814 (Primary HTS)]; type: functional
H4 = assay: Luminescence Cell-Based Dose Response HTS to Identify Activators of 5'UTR Stem-Loop Driven Prion Protein mRNA Translation in H4 Neuroglioblastoma Cells. [Related pubchem assays: 1829 (Project Summary), 1814 (Primary HTS)]; type: functional; details: Homo sapiens
[37] = Luminescence Cell-Based Dose Confirmation to Identify Activators of 5'UTR Stem-Loop Driven Alpha-Synuclein mRNA Translation in H4 Neuroglioblastoma Cells. [Related pubchem assays: 1829 (Project Summary), 1814 (Primary HTS)]; type: functional

T1 sequence (P54149 whole entry): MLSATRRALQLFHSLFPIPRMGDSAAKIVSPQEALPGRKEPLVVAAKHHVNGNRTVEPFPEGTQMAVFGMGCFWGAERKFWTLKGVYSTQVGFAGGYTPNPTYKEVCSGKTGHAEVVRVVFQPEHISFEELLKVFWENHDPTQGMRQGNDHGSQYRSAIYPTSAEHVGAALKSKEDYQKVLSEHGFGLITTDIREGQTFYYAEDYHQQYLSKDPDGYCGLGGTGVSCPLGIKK

O=[N+]([O-])c1ccc(-[n+]2nc(-c3ccccc3)nn2-c2ccccc2)cc1
EC50 [1]: > 104 µM (inactive) | IC50 [2]: 5.48 µM (active) | IC50 [3]: 23.7 µM (active) | IC50 [4]: 35.9 µM (inactive) | AC50 [5]: 0.654 µM (active)

COC(=O)CSc1nnc(-c2ccc(S(=O)(=O)N3CCCCC3)cc2)o1
IC50 [6]: > 64.6 µM (inactive) | IC50 (Melanocortin receptor 4): > 64.6 µM (inactive)

CCCn1nc(C(=O)Nc2nc(-c3ccccn3)cs2)c2ccccc2c1=O
AC50 [7]: 81.7 µM (active) | IC50 (H9c2): > 79 µM (inactive)

O=C(O)c1cccc(NC(=S)N/N=C/c2ccccc2OCc2ccc(Br)cc2)c1
IC50 (Beta-lactamase [8]): > 59.6 µM (inactive) | IC50 [9]: 3.73 µM (active) | IC50 [10]: 15.4 µM (active) | IC50 (Beta Lactamase [11]): 0.885 µM (active) | IC50 (Beta-lactamase [12]): > 59.6 µM (inactive) | IC50 (Beta-lactamase [13]): > 59.6 µM (inactive) | IC50 (Leucine aminopeptidase): 13.3 µM (active) | IC50 (Beta Lactamase [14]): 10 µM (inactive)

c1ccc2c(-c3cncc4ccccc34)cncc2c1
IC50 (Interleukin-8): 16 µM (inactive)

Clc1ccc(OCc2nn3c(-c4ccco4)nnc3s2)c(Cl)c1
IC50 [15]: 22.8 µM (inactive)

Cc1no[n+]([O-])c1COc1ccc(/C=C2\NC(=S)NC2=O)cc1
IC50 [16]: 0.578 µM (active) | IC50 (Steroidogenic factor 1): 1.34 µM (active) | IC50 [17]: 35.9 µM (inactive)

OCC1OC(n2cnc3cc(Cl)c(Cl)cc32)C(O)C1O (stereo not drawn)
Ki [18]: 2.51 µM (active) | Ki [19]: 0.126 µM (active) | Ki [20]: 2 µM (active)

O=C(CN1C(=O)NC2(CCOc3ccccc32)C1=O)c1ccc(Cl)cc1 (stereo not drawn)
AC50 [21]: 47.9 µM (active)

O=C(c1ccco1)N1CCN(c2c3c(nc4cc(-c5cccc(F)c5)nn24)CCCC3)CC1
EC50 [22]: 1.79 µM (active) | EC50 [23]: 4.41 µM (active)

O=C(Nc1nnc(-c2ccc3c(c2)OCCO3)o1)c1ccc(Cc2ccccc2)cc1
IC50 [24]: 7.92 µM (active)

CC(Cc1c[nH]c2ccccc12)C(=O)NCc1ccco1 (stereo not drawn)
IC50 [25]: 12.2 µM (active) | IC50 [26]: > 66.6 µM (inactive) | IC50 [27]: 19.4 µM (active)

CNCc1ccc(-c2[nH]c3cc(F)cc4c3c2CCNC4=O)cc1 [RUCAPARIB]
Ki [28]: > 7.94 µM (inactive)

Clc1ccc(CONc2ncnc3nonc23)c(Cl)c1
EC50 [29]: < 0.1 µM (inconclusive) | EC50 [30]: 19.4 µM (active) | EC50 [31]: 0.516 µM (active) | EC50 [32]: 1.26 µM (active) | EC50 [33]: > 160 µM (inactive) | EC50 [34]: 1.14 µM (active) | EC50 [35]: > 180 µM (inactive) | EC50 [36]: 22.4 µM (active) | EC50 (H4): 52.6 µM (active) | EC50 [37]: > 12 µM (not active)
